Source: ChEMBL document CHEMBL1201862, “PubChem BioAssay data set” (2004)
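Each compound was tested at five concentrations against cells in 96-well plates for 48 hours. The concentration for 50% growth inhibition is given as GI50.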 Activity calls are given as the source filed them. Rule as the data show it: active = GI50 up to about 1.1 µM and inactive = higher.

How the values were obtained:
Assay in all cases: NCI tumour cell line growth inhibition, 48 h
786-0 = tested on: 786-0
A498 = tested on: A498
A549 = tested on: A549
ACHN = tested on: ACHN
CAKI-1 = tested on: CAKI-1
CCRF-CEM = tested on: CCRF-CEM
COLO 205 = tested on: COLO 205
DLD-1 = tested on: DLD-1
DMS-114 = tested on: DMS-114
DMS-273 = tested on: DMS-273
EKVX = tested on: EKVX
HCC 2998 = tested on: HCC 2998
HCT-116 = tested on: HCT-116
HCT-15 = tested on: HCT-15
HOP-18 = tested on: HOP-18
HOP-62 = tested on: HOP-62
HOP-92 = tested on: HOP-92
HT-29 = tested on: HT-29
IGROV-1 = tested on: IGROV-1
K562 = tested on: K562
KM12 = tested on: KM12
LOX IMVI = tested on: LOX IMVI
LXFL 529 = tested on: LXFL 529
M14 = tested on: M14
MOLT-4 = tested on: MOLT-4
Malme-3M = tested on: Malme-3M
NCI-H226 = tested on: NCI-H226
NCI-H23 = tested on: NCI-H23
NCI-H460 = tested on: NCI-H460
NCI-H522 = tested on: NCI-H522
OVCAR-3 = tested on: OVCAR-3
OVCAR-4 = tested on: OVCAR-4
OVCAR-5 = tested on: OVCAR-5
OVCAR-8 = tested on: OVCAR-8
RXF 393 = tested on: RXF 393
SF-268 = tested on: SF-268
SF-295 = tested on: SF-295
SF-539 = tested on: SF-539
SK-MEL-28 = tested on: SK-MEL-28
SK-MEL-2 = tested on: SK-MEL-2
SK-MEL-5 = tested on: SK-MEL-5
SK-OV-3 = tested on: SK-OV-3
SN12C = tested on: SN12C
SNB-75 = tested on: SNB-75
SNB-78 = tested on: SNB-78
SR = tested on: SR
SW-620 = tested on: SW-620
TK-10 = tested on: TK-10
U-251 = tested on: U-251
UACC-257 = tested on: UACC-257
UACC-62 = tested on: UACC-62
UO-31 = tested on: UO-31
XF498 = tested on: XF498
HL-60 = tested on: HL-60
KM-20L2 = tested on: KM-20L2
M19-MEL = tested on: M19-MEL
RPMI-8226 = tested on: RPMI-8226
SNB-19 = tested on: SNB-19

COc1ccc(Nc2nc3cc(C(F)(F)F)ccc3nc2-c2ccccc2)cc1OC
GI50 (786-0): 41.8 µM (inactive) | GI50 (A498): 52.1 µM (inactive) | GI50 (A549): 25.9 µM (inactive) | GI50 (ACHN): 30.6 µM (inactive) | GI50 (CAKI-1): 31.5 µM (inactive) | GI50 (CCRF-CEM): 82.6 µM (inactive) | GI50 (COLO 205): 29.3 µM (inactive) | GI50 (DLD-1): 21.4 µM (inactive) | GI50 (DMS-114): 10.3 µM (inactive) | GI50 (DMS-273): 6.08 µM (inactive) | GI50 (EKVX): 17.3 µM (inactive) | GI50 (HCC 2998): > 100 µM (inactive) | GI50 (HCT-116): 12.6 µM (inactive) | GI50 (HCT-15): 64.4 µM | GI50 (HOP-18): < 0.01 µM (active) | GI50 (HOP-62): 2.74 µM (inactive) | GI50 (HOP-92): 1.16 µM (inactive) | GI50 (HT-29): 46.7 µM (inactive) | GI50 (IGROV-1): 24.9 µM (inactive) | GI50 (K562): 61 µM (inactive) | GI50 (KM12): > 100 µM (inactive) | GI50 (LOX IMVI): 19.8 µM (inactive) | GI50 (LXFL 529): 49 µM (inactive) | GI50 (M14): 38.6 µM (inactive) | GI50 (MOLT-4): > 100 µM (inactive) | GI50 (Malme-3M): 21.7 µM (inactive) | GI50 (NCI-H226): 15.8 µM (inactive) | GI50 (NCI-H23): 25.7 µM (inactive) | GI50 (NCI-H460): 27.7 µM (inactive) | GI50 (NCI-H522): 30 µM (inactive) | GI50 (OVCAR-3): 18.7 µM (inactive) | GI50 (OVCAR-4): 24 µM (inactive) | GI50 (OVCAR-5): > 100 µM (inactive) | GI50 (OVCAR-8): 25.8 µM (inactive) | GI50 (RXF 393): 11.9 µM (inactive) | GI50 (SF-268): 38 µM (inactive) | GI50 (SF-295): 11.3 µM (inactive) | GI50 (SF-539): 39.5 µM (inactive) | GI50 (SK-MEL-28): 19.8 µM (inactive) | GI50 (SK-MEL-2): 48.9 µM (inactive) | GI50 (SK-MEL-5): 20.3 µM (inactive) | GI50 (SK-OV-3): 15.9 µM (inactive) | GI50 (SN12C): 39.7 µM (inactive) | GI50 (SNB-75): 28.4 µM (inactive) | GI50 (SNB-78): 25.4 µM (inactive) | GI50 (SR): 75.9 µM (inactive) | GI50 (SW-620): 35.5 µM (inactive) | GI50 (TK-10): 15 µM (inactive) | GI50 (U-251): 30.9 µM (inactive) | GI50 (UACC-257): 27.2 µM (inactive) | GI50 (UACC-62): 27.4 µM (inactive) | GI50 (UO-31): 11.8 µM (inactive) | GI50 (XF498): 1.71 µM (inactive)

CCOP(=O)(OCC)C(C(=O)OC)C(=O)C(=O)Nc1ccc(Cl)cc1Cl (centres undefined)
GI50 (786-0): > 100 µM (inactive) | GI50 (A498): > 100 µM (inactive) | GI50 (A549): > 100 µM (inactive) | GI50 (ACHN): > 100 µM (inactive) | GI50 (CAKI-1): > 100 µM (inactive) | GI50 (CCRF-CEM): > 100 µM (inactive) | GI50 (COLO 205): > 100 µM (inactive) | GI50 (DLD-1): > 100 µM (inactive) | GI50 (DMS-114): > 100 µM (inactive) | GI50 (DMS-273): > 100 µM (inactive) | GI50 (EKVX): > 100 µM (inactive) | GI50 (HCC 2998): > 100 µM (inactive) | GI50 (HCT-116): > 100 µM (inactive) | GI50 (HCT-15): > 100 µM | GI50 (HL-60): > 100 µM (inactive) | GI50 (HOP-18): 24 µM (inactive) | GI50 (HOP-62): > 100 µM (inactive) | GI50 (HOP-92): > 100 µM (inactive) | GI50 (HT-29): > 100 µM (inactive) | GI50 (IGROV-1): > 100 µM (inactive) | GI50 (K562): > 100 µM (inactive) | GI50 (KM-20L2): > 100 µM (inactive) | GI50 (KM12): > 100 µM (inactive) | GI50 (LOX IMVI): > 100 µM (inactive) | GI50 (LXFL 529): > 100 µM (inactive) | GI50 (M14): > 100 µM (inactive) | GI50 (M19-MEL): > 100 µM (inactive) | GI50 (MOLT-4): > 100 µM (inactive) | GI50 (Malme-3M): > 100 µM (inactive) | GI50 (NCI-H226): > 100 µM (inactive) | GI50 (NCI-H23): > 100 µM (inactive) | GI50 (NCI-H460): > 100 µM (inactive) | GI50 (NCI-H522): > 100 µM (inactive) | GI50 (OVCAR-3): > 100 µM (inactive) | GI50 (OVCAR-4): > 100 µM (inactive) | GI50 (OVCAR-5): > 100 µM (inactive) | GI50 (OVCAR-8): > 100 µM (inactive) | GI50 (RPMI-8226): > 100 µM (inactive) | GI50 (RXF 393): 65.3 µM (inactive) | GI50 (SF-268): > 100 µM (inactive) | GI50 (SF-539): > 100 µM (inactive) | GI50 (SK-MEL-28): > 100 µM (inactive) | GI50 (SK-MEL-2): > 100 µM (inactive) | GI50 (SK-MEL-5): > 100 µM (inactive) | GI50 (SK-OV-3): > 100 µM (inactive) | GI50 (SN12C): > 100 µM (inactive) | GI50 (SNB-19): > 100 µM (inactive) | GI50 (SNB-75): > 100 µM (inactive) | GI50 (SNB-78): > 100 µM (inactive) | GI50 (SW-620): > 100 µM (inactive) | GI50 (TK-10): > 100 µM (inactive) | GI50 (U-251): > 100 µM (inactive) | GI50 (UACC-257): > 100 µM (inactive) | GI50 (UACC-62): > 100 µM (inactive) | GI50 (UO-31): > 100 µM (inactive) | GI50 (XF498): 3.78 µM (inactive)

NC1c2ccccc2Nc2ccccc21
GI50 (786-0): 3.84 µM (inactive) | GI50 (A498): 8.34 µM (inactive) | GI50 (A549): 4.26 µM (inactive) | GI50 (ACHN): 4.9 µM (inactive) | GI50 (CAKI-1): 3.63 µM (inactive) | GI50 (CCRF-CEM): 5.2 µM (inactive) | GI50 (COLO 205): 2.21 µM (inactive) | GI50 (DLD-1): 3.8 µM (inactive) | GI50 (DMS-114): 3.24 µM (inactive) | GI50 (DMS-273): 4.52 µM (inactive) | GI50 (EKVX): 5.71 µM (inactive) | GI50 (HCC 2998): 6.46 µM (inactive) | GI50 (HCT-116): 3.23 µM (inactive) | GI50 (HCT-15): 3.31 µM | GI50 (HL-60): 4.3 µM (inactive) | GI50 (HOP-18): 8.81 µM (inactive) | GI50 (HOP-62): 6.15 µM (inactive) | GI50 (HOP-92): 3.27 µM (inactive) | GI50 (HT-29): 4.08 µM (inactive) | GI50 (IGROV-1): 2.95 µM (inactive) | GI50 (K562): 3.54 µM (inactive) | GI50 (KM-20L2): 3.76 µM (inactive) | GI50 (KM12): 4.22 µM (inactive) | GI50 (LOX IMVI): 3.53 µM (inactive) | GI50 (LXFL 529): 4.94 µM (inactive) | GI50 (M14): 3.92 µM (inactive) | GI50 (M19-MEL): 3.36 µM (inactive) | GI50 (MOLT-4): 2.94 µM (inactive) | GI50 (Malme-3M): 4.97 µM (inactive) | GI50 (NCI-H226): 9.1 µM (inactive) | GI50 (NCI-H23): 4.74 µM (inactive) | GI50 (NCI-H460): 2.76 µM (inactive) | GI50 (NCI-H522): 2.15 µM (inactive) | GI50 (OVCAR-3): 6.08 µM (inactive) | GI50 (OVCAR-5): 5.04 µM (inactive) | GI50 (OVCAR-8): 4.34 µM (inactive) | GI50 (RPMI-8226): 4.56 µM (inactive) | GI50 (RXF 393): 6.24 µM (inactive) | GI50 (SF-268): 3.08 µM (inactive) | GI50 (SF-295): 4.49 µM (inactive) | GI50 (SK-MEL-28): 3.54 µM (inactive) | GI50 (SK-MEL-2): 13.2 µM (inactive) | GI50 (SK-MEL-5): 5.28 µM (inactive) | GI50 (SK-OV-3): 4.67 µM (inactive) | GI50 (SN12C): 4.53 µM (inactive) | GI50 (SNB-19): 5.18 µM (inactive) | GI50 (SNB-75): 11.8 µM (inactive) | GI50 (SNB-78): 9.1 µM (inactive) | GI50 (SR): 2.64 µM (inactive) | GI50 (SW-620): 3.66 µM (inactive) | GI50 (TK-10): 5.82 µM (inactive) | GI50 (UACC-257): 5.21 µM (inactive) | GI50 (UACC-62): 4.26 µM (inactive) | GI50 (UO-31): 3.27 µM (inactive) | GI50 (XF498): 3.16 µM (inactive)
